Data on one molecule can be found in patent publication US20140296153A1, “Oligodendrocyte Differentiation” (priority 2011, published 2014).

In the assay the test system is SVZ cells. Description: BrdU cell proliferation study in SVZ cell cultures. The class given is cell-based, mouse. As to conditions: 48 hours, BrdU last 4 hours. As for the experimental part: SVZ cell cultures were obtained from early postnatal (P1-3) C57B1/6 donor mice as described previously.
Brains were removed following decapitation and placed in HBSS solution (Gibco, Carlsbad, Calif., USA). Fragments of SVZ were dissected out of 450 μm thick coronal brain sections, digested in 0.025% trypsin and 0.265 mM EDTA (Gibco), and dissociated by gentle mixing. The cell suspension was diluted in serum-free culture medium (SFM) composed of Dulbecco's modified eagle medium (D-MEM/F12 Gluta-MAX™-I, Gibco) supplemented with 100 U/mL penicillin, 100 μg/mL streptomycin (Gibco), 1% B27 (Gibco), 10 ng/mL epidermal growth factor (EGF; Gibco), and 5 ng/mL basic fibroblast growth factor (FGF-2, Gibco). Single cells were then plated on uncoated Petri dishes at a density of 3000 cells/cm^2. […]
Fluorescence images were recorded using an LSM 510 Meta confocal microscope or an Axioskop 2 Plus fluorescence microscope (both from Carl Zeiss). […] Percentages of TUNEL or BrdU immunoreactive cells in SVZ cell cultures were calculated from cell counts in five independent microscopic fields in each coverslip with a x40 objective (approximately 200 cells per field). […] For SCCl experiments, the percentage of oligodendrocytic-like responding cells (with a Thromb/Hist ratio above 1.3) was calculated on the basis of one microscopic field per coverslip, containing approximately 100 cells (magnification, ×40). […]

For the molecule `CC(C)C[C@H](NC(=O)[C@H](Cc1ccccc1)NC(=O)[C@H](CCCCN)NC(=O)[C@H](Cc1ccccc1)NC(=O)[C@H](CC(N)=O)NC(=O)[C@@H](NC(=O)[C@@H]1CCCN1)C(C)C)C(=O)N[C@@H](CO)C(=O)N[C@@H](Cc1cnc[nH]1)C(=O)O` [Hp, PVNFKFLSH], the “percentage of BrdU-positive cells” value is 4.70±0.53% (1 μM) and 4.01±0.81% (Hp 100 nM).
